The source of these data is ChEMBL document CHEMBL5385871, “Application and synthesis of thiazole ring in clinically approved drugs” (Eur J Med Chem, 2023).

Series [1] has as its system Escherichia coli. The series is described as follows: Antibacterial activity against Escherichia coli assessed as bacterial growth inhibition. The series is classed as functional.
In series [2] the test system is Pseudomonas aeruginosa. The series is described as follows: Antibacterial activity against Pseudomonas aeruginosa assessed as bacterial growth inhibition. The format is functional.
Series [3] concerns Streptococcus pneumoniae. As to the kind of experiment: Antibacterial activity against Streptococcus pneumoniae assessed as bacterial growth inhibition. The series is classed as functional.
Series [4] can be described thus: Terminal half life in fasted cynomolgus monkey at 3 mg/kg, po measured for 24 hrs by LC-MS/MS analysis. The format is ADME, organism-based, Macaca fascicularis. The conditions noted are these: in vivo, read-out: beta t1/2 (converted).
Series [5] in a line: Terminal half life in fasted Sprague-Dawley rat at 3 mg/kg, po measured for 24 hrs by LC-MS/MS analysis. The format is ADME, organism-based. The conditions noted are these: in vivo, read-out: beta t1/2 (converted).
Series [6] addresses Acetylcholinesterase (Homo sapiens, UniProt P22303).
Description: Inhibition of AChE (unknown origin)
Series [7] deals with Haemophilus influenzae. The series is described as follows: Antibacterial activity against Haemophilus influenzae assessed as bacterial growth inhibition. The series is classed as functional.
Series [8] relates to Streptococcus pyogenes. As to the kind of experiment: Antibacterial activity against Streptococcus pyogenes assessed as bacterial growth inhibition. The series is classed as functional.
A short description of series [9]: Inhibition of PI3Kalpha H1047R mutant (unknown origin). The arrangement: species or system Homo sapiens.
Series [10] deals with T1, Beta-1 adrenergic receptor (Homo sapiens, UniProt P08588). The series is described as follows: Inhibition of beta-1 adrenoceptor (unknown origin).
Series [11] has as its target T2, Beta-2 adrenergic receptor (Homo sapiens, UniProt P07550). As to the kind of experiment: Inhibition of beta-2 adrenoceptor (unknown origin).
The subject of series [12] is BaF3. As to the kind of experiment: Induction of cell proliferation of mouse BaF3 cells expressing full-length human TPO receptor by WST-1/1-methoxy PMS assay. The format is functional, cell-based. For orientation: Tetrazolium dyes change colour on reduction, which living cells bring about.
Series [13] can be described thus: Induction of colony formation of human megakaryocyte from human cord blood CD34-positive cells measured after 10 to 12 days. The format is functional, cell-based.
The test system of series [14] is Staphylococcus aureus. The series is described as follows: Antibacterial activity against Staphylococcus aureus assessed as bacterial growth inhibition. The series is classed as functional.
Series [15] concerns Staphylococcus epidermidis. As to the kind of experiment: Antibacterial activity against Staphylococcus epidermidis assessed as bacterial growth inhibition. The format is functional.
Series [16] can be described thus: Antibacterial activity against non-fermentative bacteria assessed as bacterial growth inhibition.
The subject of series [17] is Enterobacteriaceae. As to the kind of experiment: Antibacterial activity against Enterobacteriaceae assessed as bacterial growth inhibition. The series is classed as functional.
For series [18], the system named is Bacteria. As to the kind of experiment: Antibacterial activity against aerobic gram-negative bacteria assessed as bacterial growth inhibition. The format is functional.
In series [19] the test system is Proteus mirabilis. As to the kind of experiment: Antibacterial activity against Proteus mirabilis assessed as bacterial growth inhibition. The series is classed as functional.
Series [20] deals with Clostridioides difficile. The series is described as follows: Antibacterial activity against Clostridium difficile assessed as bacterial growth inhibition. The series is classed as functional.
In series [21] the test system is Bacteroides fragilis. As to the kind of experiment: Antibacterial activity against Bacteroides fragilis assessed as bacterial growth inhibition. The series is classed as functional.
In series [22] the test system is Neisseria gonorrhoeae. As to the kind of experiment: Antibacterial activity against Neisseria gonorrhoeae assessed as bacterial growth inhibition. The format is functional.
For series [23], the system named is Moraxella catarrhalis. The series is described as follows: Antibacterial activity against Moraxella catarrhalis assessed as bacterial growth inhibition. The format is functional.
Series [24] in a line: in vivo. The conditions noted are these: Sprague-Dawley, rat, po, 10 mg/kg.
Description: Half life in fasted Sprague-Dawley rat at 10 mg/kg, po administered via gavage measured for 10 hrs by LC/MS/MS analysis
Series [25] is described as follows: in vivo. The conditions noted are these: Sprague-Dawley, rat, iv, 10 mg/kg.
Description: Half life in fasted Sprague-Dawley rat at 10 mg/kg, iv measured for 10 hrs by LC/MS/MS analysis
The nature of series [26]: Oral bioavailability in fasted Sprague-Dawley rat at 10 mg/kg administered via gavage measured for 10 hrs by LC/MS/MS analysis. The series is classed as ADME, organism-based. The conditions noted are these: in vivo.
Series [27] concerns WiDr. As to the kind of experiment: cells. The conditions noted are these: Homo sapiens, 72 h.
Description: Antiproliferative activity against human WiDr cells incubated for 72 hrs by MTT assay
The subject of series [28] is K562. As to the kind of experiment: cells. The conditions noted are these: Homo sapiens, K562, 72 h.
Description: Antiproliferative activity against human K562 cells incubated for 72 hrs by MTT assay
Series [29] concerns the target Beta-3 adrenergic receptor (Homo sapiens, UniProt P13945). As to the kind of experiment: Agonist activity at human beta-3 adrenoceptor expressed in CHO cells assessed as cAMP accumulation incubated for 10 mins by radioimmunoassay. The series is classed as functional, cell-based. For orientation: Cyclic AMP is a second messenger, typically raised through Gs and lowered through Gi signalling.

Series [30] addresses T2, Beta-2 adrenergic receptor. As to the kind of experiment: Agonist activity at human beta-2 adrenoceptor expressed in CHO cells assessed as cAMP accumulation incubated for 10 mins by radioimmunoassay. The format is functional, cell-based.
Series [31] has as its system Urinary bladder. The series is described as follows: Ex vivo relaxant activity against CCh-induced contraction in rat urinary bladder smooth muscle strips relative to control. The series is classed as functional.
In series [32] the target is T1, Beta-1 adrenergic receptor. The series is described as follows: Agonist activity at human beta-1 adrenoceptor expressed in CHO cells assessed as cAMP accumulation incubated for 10 mins by radioimmunoassay. The series is classed as functional, cell-based.
Series [33] is described as follows: Inhibition of proliferation in Giardia lamblia trophozoites. The series is classed as functional, Giardia duodenalis.
Series [34] concerns the target D(3) dopamine receptor (Homo sapiens, UniProt P35462).
Description: Binding affinity to human D3 receptor assessed as inhibition constant
Series [35] can be described thus: Inhibition of P-gp-mediated extrusion of [14C]saquinavir in porcine BCEC cells measured after 5 mins by scintillation counting method. The series is classed as cell-based, Sus scrofa. The conditions noted are these: brain capillary endothelial cell.

Values after ≈ are worked out from the molar mass of the structure shown. Structures can show the parent of a compound that is named as a salt.

T2 sequence (P07550 whole entry): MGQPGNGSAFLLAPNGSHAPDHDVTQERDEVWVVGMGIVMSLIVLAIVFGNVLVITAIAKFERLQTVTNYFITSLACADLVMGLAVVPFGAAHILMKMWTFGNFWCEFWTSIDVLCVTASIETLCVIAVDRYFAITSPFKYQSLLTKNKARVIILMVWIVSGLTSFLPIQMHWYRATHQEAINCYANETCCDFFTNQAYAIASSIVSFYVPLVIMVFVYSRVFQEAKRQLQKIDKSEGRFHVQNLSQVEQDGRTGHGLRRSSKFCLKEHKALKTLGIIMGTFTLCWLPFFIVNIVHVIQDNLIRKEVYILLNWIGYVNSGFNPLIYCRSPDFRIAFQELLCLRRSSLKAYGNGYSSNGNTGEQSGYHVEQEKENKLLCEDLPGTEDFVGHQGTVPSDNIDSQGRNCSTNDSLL
T1 sequence (P08588 whole entry): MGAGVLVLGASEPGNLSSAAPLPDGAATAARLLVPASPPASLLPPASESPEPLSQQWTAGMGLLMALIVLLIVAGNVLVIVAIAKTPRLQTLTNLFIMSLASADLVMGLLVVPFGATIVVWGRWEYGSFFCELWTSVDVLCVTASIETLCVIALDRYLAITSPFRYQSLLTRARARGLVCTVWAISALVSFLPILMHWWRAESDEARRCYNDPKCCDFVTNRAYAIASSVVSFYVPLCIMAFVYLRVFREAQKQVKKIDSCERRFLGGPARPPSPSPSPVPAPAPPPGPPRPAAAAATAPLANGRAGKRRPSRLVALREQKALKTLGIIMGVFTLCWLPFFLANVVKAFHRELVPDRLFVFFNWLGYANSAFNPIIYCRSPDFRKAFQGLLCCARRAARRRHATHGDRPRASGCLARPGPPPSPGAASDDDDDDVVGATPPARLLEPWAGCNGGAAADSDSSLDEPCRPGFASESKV
Chain of D(3) dopamine receptor (P35462 whole entry): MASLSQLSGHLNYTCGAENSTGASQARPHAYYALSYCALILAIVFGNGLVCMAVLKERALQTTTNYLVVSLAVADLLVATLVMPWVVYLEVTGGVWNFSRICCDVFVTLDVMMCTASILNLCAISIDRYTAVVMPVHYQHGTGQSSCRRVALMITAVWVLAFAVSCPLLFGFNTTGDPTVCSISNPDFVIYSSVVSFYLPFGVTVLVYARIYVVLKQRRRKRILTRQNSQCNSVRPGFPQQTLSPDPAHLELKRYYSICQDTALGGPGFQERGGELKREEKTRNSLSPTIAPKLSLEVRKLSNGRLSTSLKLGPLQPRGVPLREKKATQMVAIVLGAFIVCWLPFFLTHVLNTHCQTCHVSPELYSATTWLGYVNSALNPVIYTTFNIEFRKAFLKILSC
Chain of Beta-3 adrenergic receptor (P13945 whole entry): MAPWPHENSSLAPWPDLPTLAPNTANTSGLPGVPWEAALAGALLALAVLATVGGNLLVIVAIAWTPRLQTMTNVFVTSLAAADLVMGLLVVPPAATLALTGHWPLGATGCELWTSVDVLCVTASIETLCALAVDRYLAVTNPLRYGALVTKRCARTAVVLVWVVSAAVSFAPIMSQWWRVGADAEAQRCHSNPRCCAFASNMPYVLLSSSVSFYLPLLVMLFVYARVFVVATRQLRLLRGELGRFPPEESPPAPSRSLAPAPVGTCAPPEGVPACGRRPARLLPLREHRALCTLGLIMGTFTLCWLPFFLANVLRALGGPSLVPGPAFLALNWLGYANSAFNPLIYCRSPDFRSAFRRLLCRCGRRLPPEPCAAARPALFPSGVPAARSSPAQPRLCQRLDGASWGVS
Chain of Acetylcholinesterase (P22303 whole entry): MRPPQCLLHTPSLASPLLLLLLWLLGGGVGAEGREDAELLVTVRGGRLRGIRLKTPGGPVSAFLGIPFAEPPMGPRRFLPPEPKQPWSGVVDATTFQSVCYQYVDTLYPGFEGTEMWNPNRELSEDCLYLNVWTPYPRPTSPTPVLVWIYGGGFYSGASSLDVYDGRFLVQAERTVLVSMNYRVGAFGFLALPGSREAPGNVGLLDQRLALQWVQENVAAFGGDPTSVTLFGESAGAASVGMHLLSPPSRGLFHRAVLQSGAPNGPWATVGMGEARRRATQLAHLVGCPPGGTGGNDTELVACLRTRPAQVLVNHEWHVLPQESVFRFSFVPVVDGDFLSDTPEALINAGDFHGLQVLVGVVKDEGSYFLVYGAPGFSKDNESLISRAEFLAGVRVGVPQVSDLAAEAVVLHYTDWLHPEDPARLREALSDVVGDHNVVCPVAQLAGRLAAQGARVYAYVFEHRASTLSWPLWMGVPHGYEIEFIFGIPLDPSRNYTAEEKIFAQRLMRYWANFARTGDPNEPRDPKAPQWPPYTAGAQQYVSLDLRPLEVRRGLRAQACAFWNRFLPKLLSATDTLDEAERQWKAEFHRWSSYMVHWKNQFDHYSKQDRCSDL

As to `CO/N=C(\C(=O)N[C@@H]1C(=O)N2C(C(=O)[O-])=C(C[N+]3(C)CCCC3)CS[C@H]12)c1csc(N)n1`, the MIC was no more than 0.007 µg/mL in [1], greater than 0.06 µg/mL in series [2] and 0.007 µg/mL (≈ 0.0146 µM) in series [3].
As for `COc1ccc2c(O[C@@H]3C[C@H]4C(=O)N[C@]5(C(=O)NS(=O)(=O)C6CC6)C[C@H]5/C=C\CCCCN(C)C(=O)[C@@H]4C3)cc(-c3nc(C(C)C)cs3)nc2c1C`, the figures for the half-life in [4] and in [5] were 4.1 h and 1.5 h, respectively.
In general, IC50 refers to the midpoint of a concentration-inhibition curve. Take `COc1cc(O)c(C(=O)Nc2nc(C(=O)NCCN(C(C)C)C(C)C)cs2)cc1OC`: the IC50 in series [6] came out at 1790 nM.
Consider `C=CC1=C(C(=O)O)N2C(=O)[C@@H](NC(=O)/C(=N\O)c3csc(N)n3)[C@H]2SC1`, for which the figures for the MIC in [7], in series [3] and in [8] were 0.05 µg/mL (≈ 0.126 µM), 0.006 µg/mL (≈ 0.0152 µM) and no more than 0.004 µg/mL, respectively.
In series [9], `Cc1nc(NC(=O)N2CCC[C@H]2C(N)=O)sc1-c1ccnc(C(C)(C)C(F)(F)F)c1` [ALPELISIB] had an IC50 of roughly 4 nM.
Usually Ki stands for the dissociation constant of the complex between target and ligand, obtained from inhibition or displacement. As for `CC(C)(C)NCC(O)CSc1nc(-c2ccc(C(N)=O)s2)cs1` (centres undefined) [AROTINOLOL], the Ki in series [10] is 0.182 nM; in series [11], 0.55 nM.
Broadly, the EC50 is the concentration that produces a half-maximal response. For the compound `O=C(Nc1nc(-c2cc(Cl)cs2)c(N2CCN(C3CCCCC3)CC2)s1)c1cnc(N2CCC(C(=O)O)CC2)c(Cl)c1` [AVATROMBOPAG], the EC50 in [12] turned out to be 3.3 nM; in [13] it was 25 nM.
In the case of `C[C@H]1[C@H](NC(=O)/C(=N\OC(C)(C)C(=O)O)c2csc(N)n2)C(=O)N1S(=O)(=O)O` [AZTREONAM], the MIC in series [14] was no less than 8 µg/mL; in [8], no less than 8 µg/mL; in series [15], 8 µg/mL (≈ 18.4 µM).
Take `CC(C)(O/N=C(\C(=O)N[C@@H]1C(=O)N2C(C(=O)[O-])=C(C[N+]3(CCNC(=O)c4ccc(O)c(O)c4Cl)CCCC3)CS[C@H]12)c1csc(N)n1)C(=O)O` [CEFIDEROCOL]: the MIC in series [16], in series [17] and in [18] was less than 2 µg/mL throughout.
In the case of `C=CC1=C(C(=O)O)N2C(=O)[C@@H](NC(=O)/C(=N\OCC(=O)O)c3csc(N)n3)[C@H]2SC1` [CEFIXIME], the values for the MIC in [1], in [19] and in [7] were 0.015 µg/mL (≈ 0.0331 µM), no more than 0.008 µg/mL and 0.004 µg/mL (≈ 0.00882 µM), respectively.
On to `CN(C)CCn1nnnc1SCC1=C(C(=O)O)N2C(=O)[C@@H](NC(=O)Cc3csc(N)n3)[C@H]2SC1` [CEFOTIAM], for which the MIC is 0.25 µg/mL (≈ 0.476 µM) in [14], greater than 128 µg/mL in series [20] and no less than 16 µg/mL in [21].
For the compound `COCC1=C(C(=O)O)N2C(=O)[C@@H](NC(=O)/C(=N\OC)c3csc(N)n3)[C@H]2SC1` [CEFPODOXIME], the MIC in series [7] was no more than 0.03 µg/mL; in [22] it was 0.004 µg/mL (≈ 0.00936 µM); in [8], no more than 0.004 µg/mL.
As for `Nc1nc(/C(=C/CC(=O)O)C(=O)N[C@@H]2C(=O)N3C(C(=O)O)=CCS[C@H]23)cs1` [CEFTIBUTEN], the results for the MIC in series [23], in series [7] and in series [3] were 0.5 µg/mL (≈ 1.22 µM), 0.015 µg/mL (≈ 0.0365 µM) and 0.5 µg/mL (≈ 1.22 µM), respectively.
What is called bioavailability is the share of a dose that reaches the circulation, judged against a reference dose that is usually intravenous. As for `Cc1nc(Nc2ncc(C(=O)Nc3c(C)cccc3Cl)s2)cc(N2CCN(CCO)CC2)n1.O` [DASATINIB], the half-life at 10 h in [24] is 3.1 h; in series [25] it was 3.3 h. This compound also returned a bioavailability in series [26] of 27%. Further, the IC50 in [27] was less than 1 nM; in [28] it was 52 nM.
What is called Emax is the greatest response seen or fitted, relative to the assay's reference. In the case of `Nc1nc(CC(=O)Nc2ccc(CCNC[C@H](O)c3ccccc3)cc2)cs1` [MIRABEGRON], the EC50 in [29] is 22.4 nM; in [30] it was no less than 10000 nM; in series [32] it was no less than 10000 nM. This compound also had an Emax in [31] of 94%.
The compound `CC(=O)Oc1ccccc1C(=O)Nc1ncc([N+](=O)[O-])s1` [NITAZOXANIDE] came in with an IC50 in series [33] of 2400 nM.
In the case of `CCCN[C@H]1CCc2nc(N)sc2C1` [PRAMIPEXOLE DIHYDROCHLORIDE], the Ki in [34] worked out at 0.5 nM.
The compound `CC(C)c1nc(CN(C)C(=O)N[C@H](C(=O)N[C@@H](Cc2ccccc2)C[C@H](O)[C@H](Cc2ccccc2)NC(=O)OCc2cncs2)C(C)C)cs1` [RITONAVIR] gave an IC50 in series [35] of 200 nM.
